Counter-ions that a name gives are not always drawn.
biological target: PARP-1 (poly[ADP-ribose] polymerase 1) enzyme (Homo sapiens (Human), UniProt P09874); assay: PARP-1 (poly[ADP-ribose] polymerase 1) enzyme inhibitory ability, Trevigen assay kit; assay type: biochemical; settings: 1 nM compound; read-out: PAR P-1 Inhibitory ability at 1 nM
Summary of the method: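 After the 1 hour PARP reaction, wells were washed with PBS containing 0.1% triton X-100 and then PBS. Strep-HRP (50 μL) was bound for 1 hour, wells washed again, and 50 μL of TACS-sapphire substrate developed 15 minutes in the dark. Reactions were stopped with 50 μL of 5% phosphoric acid and absorbance read at 450 nm on a Victor3 reader.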

PARP-1 (poly[ADP-ribose] polymerase 1) enzyme, sequence (P09874 whole entry): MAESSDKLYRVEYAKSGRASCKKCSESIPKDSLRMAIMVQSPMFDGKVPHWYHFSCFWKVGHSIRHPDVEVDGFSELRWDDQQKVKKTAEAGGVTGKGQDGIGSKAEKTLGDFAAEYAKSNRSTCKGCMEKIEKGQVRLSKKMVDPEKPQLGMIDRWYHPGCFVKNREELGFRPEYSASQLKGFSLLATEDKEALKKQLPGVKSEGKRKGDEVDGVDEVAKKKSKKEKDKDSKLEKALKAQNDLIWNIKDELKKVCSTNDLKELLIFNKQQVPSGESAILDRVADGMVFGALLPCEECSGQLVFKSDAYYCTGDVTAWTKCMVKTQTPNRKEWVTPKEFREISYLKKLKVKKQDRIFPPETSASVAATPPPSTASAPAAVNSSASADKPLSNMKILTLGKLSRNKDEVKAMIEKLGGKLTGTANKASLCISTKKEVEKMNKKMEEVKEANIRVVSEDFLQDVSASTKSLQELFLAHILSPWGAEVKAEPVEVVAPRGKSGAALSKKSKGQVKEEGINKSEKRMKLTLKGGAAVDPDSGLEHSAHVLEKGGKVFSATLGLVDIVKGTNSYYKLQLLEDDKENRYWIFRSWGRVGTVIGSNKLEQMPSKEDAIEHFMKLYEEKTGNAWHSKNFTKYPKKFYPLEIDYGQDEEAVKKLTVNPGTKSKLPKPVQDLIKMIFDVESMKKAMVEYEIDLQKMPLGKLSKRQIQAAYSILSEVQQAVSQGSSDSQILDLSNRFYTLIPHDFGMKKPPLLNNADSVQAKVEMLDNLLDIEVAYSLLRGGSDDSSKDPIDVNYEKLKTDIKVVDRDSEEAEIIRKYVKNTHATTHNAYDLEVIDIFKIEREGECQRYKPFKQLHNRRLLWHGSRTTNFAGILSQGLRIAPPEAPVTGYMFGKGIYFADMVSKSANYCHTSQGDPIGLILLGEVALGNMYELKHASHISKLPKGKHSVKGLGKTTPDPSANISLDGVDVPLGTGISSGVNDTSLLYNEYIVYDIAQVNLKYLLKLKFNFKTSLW

`N#Cc1ccc(N2CC3CCC(C2)N3C(=O)CCc2cc3ncccc3c(=O)[nH]2)cc1` [Example 246, 4-(8-(3-(5-oxo-5,6-dihydro-1,6-naphthyridin-7-yl)propanoyl)-3,8-diazabicyclo[3.2.1]octan-3-yl)benzonitrile] was tested. Which inhibition at 0.001 µM did it give?
The inhibition at 0.001 µM was under 50%.

`O=c1[nH]c(CCCN2CCN(c3cccc(OC(F)(F)F)c3)CC2)cc2ccc(F)cc12` [Example 16, 7-fluoro-3-(3-(4-(3-(trifluoromethoxy)phenyl)piperazin-1-yl)propyl)isoquinolin-1(2H)-one] was tested. Which inhibition at 0.001 µM did it give?
Its inhibition at 0.001 µM is under 50%.

With `Cc1ccc(F)c2c(=O)[nH]c(CCC(=O)N3C4CCC3CN(c3ccc(F)cc3)C4)cc12` [Example 208, 8-fluoro-3-(3-(3-(4-fluorophenyl)-3,8-diazabicyclo[3.2.1]octan-8-yl)-3-oxopropyl)-5-methylisoquinolin-1(2H)-one] as the molecule, how does the inhibition at 0.001 µM read?
Its inhibition at 0.001 µM is under 50%.

How did the inhibition at 0.001 µM turn out when `N#Cc1ccc(N2CCN(C(=O)CCc3cc4cccc(F)c4c(=O)[nH]3)CC2)cc1F` [Example 72, 2-fluoro-4-(4-(3-(8-fluoro-1-oxo-1,2-dihydroisoquinolin-3-yl)propanoyl)piperazin-1-yl)benzonitrile] was run?
The inhibition at 0.001 µM was under 50%.

For `N#Cc1cc(N2CCN(C(=O)CCc3cc4cccc(F)c4c(=O)[nH]3)CC2)ccc1F` [Example 80, 2-fluoro-5-(4-(3-(8-fluoro-1-oxo-1,2-dihydroisoquinolin-3-yl)propanoyl)piperazin-1-yl)benzonitrile], which inhibition at 0.001 µM is on record?
The inhibition at 0.001 µM was under 50%.

Which inhibition at 0.001 µM does the source give for `Cc1cc(F)cc2c(=O)[nH]c(CCC(=O)N3CCN(c4ccc(F)cc4C#N)CC3)cc12` [Example 159, 5-fluoro-2-(4-(3-(7-fluoro-5-methyl-1-oxo-1,2-dihydroisoquinolin-3-yl)propanoyl)piperazin-1-yl)benzonitrile] here?
The inhibition at 0.001 µM was under 50%.

How did the inhibition at 0.001 µM turn out when `N#Cc1ccc(N2CCN(C(=O)CCc3cc4ccc(F)cc4c(=O)[nH]3)CC2)c(F)c1` [Example 100, 3-fluoro-4-(4-(3-(7-fluoro-1-oxo-1,2-dihydroisoquinolin-3-yl)propanoyl)piperazin-1-yl)benzonitrile] was run?
The inhibition at 0.001 µM was under 50%.

With `Cc1ccc(F)c2c(=O)[nH]c(CCC(=O)N3CCN(C(=O)C(C)C)CC3)cc12` [Example 187, 8-fluoro-3-(3-(4-isobutyrylpiperazin-1-yl)-3-oxopropyl)-5-methylisoquinolin-1(2H)-one] as the molecule, how does the inhibition at 0.001 µM read?
Its inhibition at 0.001 µM is under 50%.

Which inhibition at 0.001 µM does the source give for `Cc1ccc(F)c2c(=O)[nH]c(CCC(=O)N3CCN(c4ccc(F)cc4C#N)CC3)cc12` [Example 136, 5-fluoro-2-(4-(3-(8-fluoro-5-methyl-1-oxo-1,2-dihydroisoquinolin-3-yl)propanoyl)piperazin-1-yl)benzonitrile] here?
Its inhibition at 0.001 µM is under 50%.

`N#Cc1ccc(C2=CCN(C(=O)CCc3cc4ccc(F)cc4c(=O)[nH]3)CC2)cc1` [Example 95, 4-(1-(3-(7-fluoro-1-oxo-1,2-dihydroisoquinolin-3-yl)propanoyl)-1,2,3,6-tetrahydropyridin-4-yl)benzonitrile] was tested. Which inhibition at 0.001 µM did it give?
Its inhibition at 0.001 µM is under 50%.

`Cc1ccc(F)c2c(=O)[nH]c(CCC(=O)N3CCC(O)CC3)cc12` [Example 270, 8-fluoro-3-(3-(4-hydroxypiperidin-1-yl)-3-oxopropyl)-5-methylisoquinolin-1(2H)-one] was tested. Which inhibition at 0.001 µM did it give?
The inhibition at 0.001 µM was under 50%.

`Cc1ccc(F)c2c(=O)[nH]c(CCCN3CCN(c4ccc(C#N)cc4)CC3)cc12` [Example 23, 4-(4-(3-(8-fluoro-5-methyl-1-oxo-1,2-dihydroisoquinolin-3-yl)propyl)piperazin-1-yl)benzonitrile] was tested. Which inhibition at 0.001 µM did it give?
The inhibition at 0.001 µM was under 50%.

Which inhibition at 0.001 µM does the source give for `O=c1[nH]c(CCCN2CCN(c3cccc(Cl)c3)CC2)cc2ccc(F)cc12` [Example 17, 3-(3-(4-(3-chlorophenyl)piperazin-1-yl)propyl)-7-fluoroisoquinolin-1(2H)-one] here?
Its inhibition at 0.001 µM is under 50%.

`O=C(CCc1cc2ccc(F)cc2c(=O)[nH]1)N1CC=C(c2ccc(F)nc2)CC1` [Example 102] was tested. Which inhibition at 0.001 µM did it give?
Its inhibition at 0.001 µM is under 50%.

`N#Cc1cc(F)cc(C2=CCN(C(=O)CCc3cc4ccc(F)cc4c(=O)[nH]3)CC2)c1` [Example 114, 3-fluoro-5-(1-(3-(7-fluoro-1-oxo-1,2-dihydroisoquinolin-3-yl)propanoyl)-1,2,3,6-tetrahydropyridin-4-yl)benzonitrile] was tested. Which inhibition at 0.001 µM did it give?
The inhibition at 0.001 µM was under 50%.

For `Cc1ccc(F)c2c(=O)[nH]c(CCC(=O)N3CCN(c4ccc(C(=O)O)cc4)CC3)cc12` [Example 147, 4-(4-(3-(8-fluoro-5-methyl-1-oxo-1,2-dihydroisoquinolin-3-yl)propanoyl)piperazin-1-yl)benzoic acid], which inhibition at 0.001 µM is on record?
Its inhibition at 0.001 µM is under 50%.

`Cc1ccc(F)c2c(=O)[nH]c(CCCN3CC=C(c4ccc(C#N)cn4)CC3)cc12` [Example 57, 1′-(3-(8-fluoro-5-methyl-1-oxo-1,2-dihydroisoquinolin-3-yl)propyl)-1′,2′,3′,6′-tetrahydro-[2,4′-bipyridine]-5-carbonitrile] was tested. Which inhibition at 0.001 µM did it give?
Its inhibition at 0.001 µM is 50 to 80%.

How did the inhibition at 0.001 µM turn out when `N#Cc1ccc(F)cc1N1CCN(C(=O)CCc2cc3ccc(F)cc3c(=O)[nH]2)CC1` [Example 108, 4-fluoro-2-(4-(3-(7-fluoro-1-oxo-1,2-dihydroisoquinolin-3-yl)propanoyl)piperazin-1-yl)benzonitrile] was run?
The inhibition at 0.001 µM was under 50%.

With `COC(=O)c1ccc(N2CCN(C(=O)CCc3cc4c(C)ccc(F)c4c(=O)[nH]3)CC2)cc1` [Example 146, methyl 4-(4-(3-(8-fluoro-5-methyl-1-oxo-1,2-dihydroisoquinolin-3-yl)propanoyl)piperazin-1-yl)benzoate] as the molecule, how does the inhibition at 0.001 µM read?
The inhibition at 0.001 µM was under 50%.

For `O=C(CCc1cc2cccc(F)c2c(=O)[nH]1)N1CCN(C(=O)C2CCCCC2)CC1` [Example 170, 3-(3-(4-(cyclohexanecarbonyl)piperazin-1-yl)-3-oxopropyl)-8-fluoroisoquinolin-1(2H)-one], which inhibition at 0.001 µM is on record?
The inhibition at 0.001 µM was under 50%.

For `O=C(CCc1cc2ccc(F)cc2c(=O)[nH]1)N1CC=C(c2ccnc(F)c2)CC1` [Example 121, 7-fluoro-3-(3-(2′-fluoro-3,6-dihydro-[4,4′-bipyridine]-1(2H)-yl)-3-oxopropyl)isoquinolin-1(2H)-one], which inhibition at 0.001 µM is on record?
The inhibition at 0.001 µM was under 50%.

`Cc1ccc(F)c2c(=O)[nH]c(CCC(=O)N3CCN(C(=O)[C@H](C)N)CC3)cc12` [Example 194, 3-(3-(4-(L-alanyl)piperazin-1-yl)-3-oxopropyl)-8-fluoro-5-methylisoquinolin-1(2H)-one hydrochloride] was tested. Which inhibition at 0.001 µM did it give?
Its inhibition at 0.001 µM is under 50%.

How did the inhibition at 0.001 µM turn out when `O=c1[nH]c(CCCN2CC=C(c3ccnc(F)c3)CC2)cc2ncccc12` [Example 237, 7-(3-(2′-fluoro-3,6-dihydro-[4,4′-bipyridine]-1(2H)-yl)propyl)-1,6-naphthyridin-5(6H)-one] was run?
The inhibition at 0.001 µM was under 50%.

For `Cc1ccc(F)c2c(=O)[nH]c(CCCN3C4CCC3CN(c3ccc(C#N)cn3)C4)cc12` [Example 199], which inhibition at 0.001 µM is on record?
The inhibition at 0.001 µM was under 50%.

Which inhibition at 0.001 µM does the source give for `O=C(CCc1cc2ccc(F)cc2c(=O)[nH]1)N1CC=C(c2ccc(F)cc2F)CC1` [Example 113, 3-(3-(4-(2,4-difluorophenyl)-3,6-dihydropyridin-1(2H)-yl)-3-oxopropyl)-7-fluoroisoquinolin-1(2H)-one] here?
Its inhibition at 0.001 µM is under 50%.

For `N#Cc1ccc(NC2CCN(CCCc3cc4ccc(F)cc4c(=O)[nH]3)CC2)cc1` [Example 249, 4-((1-(3-(7-fluoro-1-oxo-1,2-dihydroisoquinolin-3-yl)propyl)piperidin-4-yl)amino)benzonitrile], which inhibition at 0.001 µM is on record?
The inhibition at 0.001 µM was under 50%.

same assay, conditions: PARP-1 enzyme activity

For `Cc1ccc(F)c2c(=O)[nH]c(CCCN3CCN(c4ccc(C#N)cc4)CC3)cc12` [Example 23, 4-(4-(3-(8-fluoro-5-methyl-1-oxo-1,2-dihydroisoquinolin-3-yl)propyl)piperazin-1-yl)benzonitrile], which IC50 is on record?
The IC50 was 0.76 nM.

How did the IC50 turn out when `Cc1ccc(F)c2c(=O)[nH]c(CCCN3CC=C(c4ccc(C#N)cn4)CC3)cc12` [Example 57, 1′-(3-(8-fluoro-5-methyl-1-oxo-1,2-dihydroisoquinolin-3-yl)propyl)-1′,2′,3′,6′-tetrahydro-[2,4′-bipyridine]-5-carbonitrile] was run?
Its IC50 is 0.91 nM.

— patent publication US12459899B2, “Isoquinolinone derivatives, method for preparing the same, and pharmaceutical composition for preventing or treating poly(ADP-ribose) polymerase-1-related diseases, comprising the same as active ingredient” (DIGMBIO. INC., priority 2019, dated 2025)
